Experimental data: patent publication US20100298141A1, “SUBSTITUTED PYRIDINE N-OXIDE HERBICIDES” (E. I. DU PONT DE NEMOURS AND COMPANY, priority 2007, published 2010)

How the values were obtained:
[1] = test system: giant foxtail; assay: Test A pre-/postemergence greenhouse test; assay type: in vivo, Setaria faberi; details: for Plant response rating, Foxtail, Giant: 0 to 100 scale where 0 is no effect and 100 is complete control; for Foxtail, Giant plant response rating: 0 to 100 scale
Outline: (§1)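 Pots of loam–sand soil sown with the test species are sprayed preemergence on the soil surface; emerged seedlings (1–2 leaves, 2–10 cm) are sprayed postemergence at the same time. The vehicle is a non-phytotoxic solvent mixture with surfactant. Injury is scored visually after ~10 d in greenhouse.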

[2] = test system: morningglory; assay: Test A pre-/postemergence greenhouse test; assay type: in vivo, Ipomoea spp.; details: for Plant response rating, Morningglory: 0 to 100 scale where 0 is no effect and 100 is complete control; for Morningglory plant response rating: 0 to 100 scale
Outline: as §1

[3] = test system: redroot pigweed; assay: Test A pre-/postemergence greenhouse test; assay type: in vivo, Amaranthus retroflexus; details: for Plant response rating, Pigweed: 0 to 100 scale where 0 is no effect and 100 is complete control; for Pigweed plant response rating: 0 to 100 scale
Outline: as §1

[4] = test system: wheat; assay: Test A pre-/postemergence greenhouse test; assay type: in vivo, Triticum aestivum; details: for Plant response rating, Wheat: 0 to 100 scale where 0 is no effect and 100 is complete control; for Wheat plant response rating: 0 to 100 scale
Outline: as §1

[5] = test system: blackgrass; assay: Test C pre-/postemergence test; assay type: in vivo, Alopecurus myosuroides; details: for Plant response rating, Blackgrass: 31 g ai/ha, scale 0 to 100 (0 no effect, 100 complete control)
Outline: (§2)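 Compounds in a non-phytotoxic solvent with surfactant applied preemergence to seeded pots and, at the same time, postemergence to plants 2–18 cm tall (1- to 4-leaf stage). Paddy tests: pots flooded to 3 cm, compound applied into the water, depth held throughout.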

[6] = test system: downy brome; assay: Test C pre-/postemergence test; assay type: in vivo, Bromus tectorum; details: for Plant response rating, Bromegrass, Downy: 31 g ai/ha, scale 0 to 100 (0 no effect, 100 complete control)
Outline: as §2

[7] = test system: wheat; assay: Test C pre-/postemergence test; assay type: in vivo, Triticum aestivum; details: for Plant response rating, Wheat: 31 g ai/ha, scale 0 to 100 (0 no effect, 100 complete control)
Outline: as §2

[8] = test system: wild oat; assay: Test C pre-/postemergence test; assay type: in vivo, Avena fatua; details: for Plant response rating, Oat, Wild: 31 g ai/ha, scale 0 to 100 (0 no effect, 100 complete control)
Outline: as §2

[9] = test system: catchweed bedstraw; assay: Test C pre-/postemergence test; assay type: in vivo, Galium aparine; details: for Plant response rating, Galium: 31 g ai/ha, scale 0 to 100 (0 no effect, 100 complete control)
Outline: as §2

[10] = test system: Surinam grass; assay: Test C pre-/postemergence test; assay type: in vivo, Brachiaria decumbens; details: for Plant response rating, Surinam Grass: 31 g ai/ha, scale 0 to 100 (0 no effect, 100 complete control)
Outline: as §2

[11] = test system: cocklebur; assay: Test C pre-/postemergence test; assay type: in vivo, Xanthium strumarium; details: for Plant response rating, Cocklebur: 31 g ai/ha, scale 0 to 100 (0 no effect, 100 complete control)
Outline: as §2

[12] = test system: woolly cupgrass; assay: Test C pre-/postemergence test; assay type: in vivo, Eriochloa villosa; details: for Plant response rating, Cupgrass, Woolly: 31 g ai/ha, scale 0 to 100 (0 no effect, 100 complete control)
Outline: as §2

[13] = test system: giant foxtail; assay: Test C pre-/postemergence test; assay type: in vivo, Setaria faberii; details: for Plant response rating, Foxtail, Giant: 31 g ai/ha, scale 0 to 100 (0 no effect, 100 complete control)
Outline: as §2

[14] = test system: kochia; assay: Test C pre-/postemergence test; assay type: in vivo, Kochia scoparia; details: for Plant response rating, Kochia: 31 g ai/ha, scale 0 to 100 (0 no effect, 100 complete control)
Outline: as §2

[15] = test system: lambsquarters; assay: Test C pre-/postemergence test; assay type: in vivo, Chenopodium album; details: for Plant response rating, Lambsquarters: 31 g ai/ha, scale 0 to 100 (0 no effect, 100 complete control)
Outline: as §2

[16] = test system: eastern black nightshade; assay: Test C pre-/postemergence test; assay type: in vivo, Solanum ptycanthum; details: for Plant response rating, Nightshade: 31 g ai/ha, scale 0 to 100 (0 no effect, 100 complete control)
Outline: as §2

[17] = test system: common ragweed; assay: Test C pre-/postemergence test; assay type: in vivo, Ambrosia elation; details: for Plant response rating, Ragweed: 31 g ai/ha, scale 0 to 100 (0 no effect, 100 complete control)
Outline: as §2

[18] = test system: common (oilseed) sunflower; assay: Test C pre-/postemergence test; assay type: in vivo, Helianthus annuus; details: for Plant response rating, Sunflower: 31 g ai/ha, scale 0 to 100 (0 no effect, 100 complete control)
Outline: as §2

[19] = test system: velvetleaf; assay: Test C pre-/postemergence test; assay type: in vivo, Abutilon theophrasti; details: for Plant response rating, Velvetleaf: 31 g ai/ha, scale 0 to 100 (0 no effect, 100 complete control)
Outline: as §2

[20] = Postemergence, 500 g ai/ha, 0 is no effect, 100 is complete control
[21] = Preemergence, 125 g ai/ha, 0 no effect, 100 complete control
[22] = 62 g ai/ha, Preemergence, scale 0 to 100
[23] = preemergence, 250 g ai/ha, scale 0 (no effect) to 100 (complete control)
[24] = 125 g ai/ha, preemergence, scale 0 (no effect) to 100 (complete control)
[25] = Postemergence, 125 g ai/ha, 0 is no effect, 100 is complete control
[26] = preemergence, 125 g ai/ha, scale 0 (no effect) to 100 (complete control)

Cn1nc(C(F)(F)F)c(C[S+]([O-])c2ccc(F)c[n+]2[O-])c1Cl (stereo not shown) [Compound 54]
Plant response rating, Foxtail, Giant ([1]; Postemergence, 125 g ai/ha): 60 | Foxtail, Giant plant response rating [1, 20]: 80 | Foxtail, Giant plant response rating [1, 21]: 80 | Plant response rating, Foxtail, Giant ([1]; Preemergence, 500 g ai/ha): 90 | Plant response rating, Morningglory ([2]; Postemergence, 125 g ai/ha): 60 | Morningglory plant response rating [2, 20]: 90 | Morningglory plant response rating [2, 21]: 10 | Plant response rating, Morningglory ([2]; Preemergence, 500 g ai/ha): 80 | Plant response rating, Pigweed ([3]; Postemergence, 125 g ai/ha): 40 | Pigweed plant response rating [3, 20]: 60 | Pigweed plant response rating [3, 21]: 90 | Plant response rating, Pigweed ([3]; Preemergence, 500 g ai/ha): 100 | Plant response rating, Wheat ([4]; Postemergence, 125 g ai/ha): 30 | Wheat plant response rating [4, 20]: 50 | Wheat plant response rating [4, 21]: 10 | Plant response rating, Wheat ([4]; Preemergence, 500 g ai/ha): 70 | Blackgrass plant response rating [5, 22]: 50 | Plant response rating, Blackgrass ([5]; Preemergence): 0 | Blackgrass plant response rating [5, 23]: 85 | Bromegrass, Downy plant response rating [6, 22]: 0 | Bromegrass, Downy plant response rating [6, 24]: 10 | Plant response rating, Bromegrass, Downy ([6]; Preemergence): 0 | Bromegrass, Downy plant response rating [6, 23]: 60 | Wheat plant response rating [7, 24]: 40 | Plant response rating, Wheat ([7]; Preemergence): 0 | Oat, Wild plant response rating [8, 22]: 10 | Oat, Wild plant response rating [8, 24]: 30 | Plant response rating, Oat, Wild ([8]; Preemergence): 0 | Oat, Wild plant response rating [8, 23]: 40 | Galium plant response rating [9, 22]: 0 | Galium plant response rating [9, 24]: 85 | Plant response rating, Galium ([9]; Preemergence): 0 | Galium plant response rating [9, 23]: 85 | Surinam Grass plant response rating [10, 22]: 90 | Surinam Grass plant response rating [10, 24]: 100 | Plant response rating, Surinam Grass ([10]; Preemergence): 55 | Surinam Grass plant response rating [10, 23]: 100 | Cocklebur plant response rating [11, 22]: 0 | Cocklebur plant response rating [11, 24]: 0 | Plant response rating, Cocklebur ([11]; Preemergence): 0 | Cocklebur plant response rating [11, 23]: 0 | Cupgrass, Woolly plant response rating [12, 22]: 85 | Cupgrass, Woolly plant response rating [12, 24]: 95 | Plant response rating, Cupgrass, Woolly ([12]; Preemergence): 85 | Cupgrass, Woolly plant response rating [12, 23]: 98 | Foxtail, Giant plant response rating [13, 22]: 98 | Foxtail, Giant plant response rating [13, 24]: 100 | Plant response rating, Foxtail, Giant ([13]; Preemergence): 85 | Foxtail, Giant plant response rating [13, 23]: 100 | Kochia plant response rating [14, 22]: 100 | Kochia plant response rating [14, 24]: 100 | Plant response rating, Kochia ([14]; Preemergence): 50 | Kochia plant response rating [14, 23]: 100 | Lambsquarters plant response rating [15, 22]: 90 | Lambsquarters plant response rating [15, 24]: 100 | Plant response rating, Lambsquarters ([15]; Preemergence): 0 | Lambsquarters plant response rating [15, 23]: 100 | Nightshade plant response rating [16, 22]: 50 | Nightshade plant response rating [16, 24]: 85 | Plant response rating, Nightshade ([16]; Preemergence): 0 | Nightshade plant response rating [16, 23]: 85 | Ragweed plant response rating [17, 22]: 0 | Ragweed plant response rating [17, 24]: 5 | Plant response rating, Ragweed ([17]; Preemergence): 0 | Ragweed plant response rating [17, 23]: 10 | Sunflower plant response rating [18, 24]: 0 | Plant response rating, Sunflower ([18]; Preemergence): 0 | Sunflower plant response rating [18, 23]: 0 | Velvetleaf plant response rating [19, 22]: 0 | Velvetleaf plant response rating [19, 24]: 5 | Plant response rating, Velvetleaf ([19]; Preemergence): 0 | Velvetleaf plant response rating [19, 23]: 85

Cn1nc(C(F)(F)F)c(C[S+]([O-])c2cccc[n+]2[O-])c1OCC(F)(F)F (racemic) [Compound 28]
Foxtail, Giant plant response rating [1, 25]: 90 | Foxtail, Giant plant response rating [1, 20]: 90 | Foxtail, Giant plant response rating [1, 21]: 100 | Plant response rating, Foxtail, Giant ([1]; Preemergence, 500 g ai/ha): 100 | Morningglory plant response rating [2, 25]: 60 | Morningglory plant response rating [2, 20]: 80 | Morningglory plant response rating [2, 21]: 60 | Plant response rating, Morningglory ([2]; Preemergence, 500 g ai/ha): 90 | Pigweed plant response rating [3, 25]: 70 | Pigweed plant response rating [3, 20]: 90 | Pigweed plant response rating [3, 21]: 100 | Plant response rating, Pigweed ([3]; Preemergence, 500 g ai/ha): 100 | Wheat plant response rating [4, 25]: 60 | Wheat plant response rating [4, 20]: 70 | Wheat plant response rating [4, 21]: 70 | Plant response rating, Wheat ([4]; Preemergence, 500 g ai/ha): 100 | Blackgrass plant response rating [5, 22]: 100 | Plant response rating, Blackgrass ([5]; Preemergence): 100 | Plant response rating (0 to 100), Blackgrass ([5]; Preemergence, 250 g ai/ha): 100 | Blackgrass plant response rating [5, 26]: 100 | Bromegrass, Downy plant response rating [6, 22]: 40 | Plant response rating, Bromegrass, Downy ([6]; Preemergence): 0 | Plant response rating (0 to 100), Bromegrass, Downy ([6]; Preemergence, 250 g ai/ha): 100 | Bromegrass, Downy plant response rating [6, 26]: 50 | Wheat plant response rating [7, 22]: 40 | Plant response rating, Wheat ([7]; Preemergence): 0 | Oat, Wild plant response rating [8, 22]: 75 | Plant response rating, Oat, Wild ([8]; Preemergence): 70 | Galium plant response rating [9, 22]: 100 | Plant response rating, Galium ([9]; Preemergence): 100 | Plant response rating (0 to 100), Galium ([9]; Preemergence, 250 g ai/ha): 100 | Surinam Grass plant response rating [10, 22]: 100 | Plant response rating, Surinam Grass ([10]; Preemergence): 85 | Cocklebur plant response rating [11, 22]: 10 | Plant response rating, Cocklebur ([11]; Preemergence): 0 | Plant response rating (0 to 100), Cocklebur ([11]; Preemergence, 250 g ai/ha): 65 | Cocklebur plant response rating [11, 26]: 50 | Cupgrass, Woolly plant response rating [12, 22]: 100 | Plant response rating, Cupgrass, Woolly ([12]; Preemergence): 70 | Plant response rating (0 to 100), Cupgrass, Woolly ([12]; Preemergence, 250 g ai/ha): 100 | Foxtail, Giant plant response rating [13, 22]: 100 | Plant response rating, Foxtail, Giant ([13]; Preemergence): 95 | Plant response rating (0 to 100), Foxtail, Giant ([13]; Preemergence, 250 g ai/ha): 100 | Kochia plant response rating [14, 22]: 100 | Plant response rating, Kochia ([14]; Preemergence): 100 | Lambsquarters plant response rating [15, 22]: 100 | Plant response rating, Lambsquarters ([15]; Preemergence): 100 | Nightshade plant response rating [16, 22]: 100 | Plant response rating, Nightshade ([16]; Preemergence): 90 | Ragweed plant response rating [17, 22]: 85 | Plant response rating, Ragweed ([17]; Preemergence): 65 | Sunflower plant response rating [18, 22]: 85 | Plant response rating, Sunflower ([18]; Preemergence): 50 | Velvetleaf plant response rating [19, 22]: 100 | Plant response rating, Velvetleaf ([19]; Preemergence): 80
